Common to all, as to assay type: cell-based
For experiment [1], the system named is strain D, fluoroquinolone-resistant clinical isolate of Streptococcus pneumoniae. As to the kind of experiment: In vitro antibacterial activity (MIC), microdilution broth method, strain D. The note with it: read-out: MIC (μg/mL) D. Here is the method: (§1) Minimal inhibitory concentration (MIC) is an indicator of in vitro antibacterial activity. […] The in vitro antimicrobial activity of representative compounds of the present invention was determined by the microdilution broth method following the test method from the National Committee for Clinical Laboratory Standards (NCCLS). This method is described in the NCCLS Document M7-A4, Vol. 17, No. 2, “Methods for Dilution Antimicrobial Susceptibility Test for Bacteria that Grow Aerobically—Fourth Edition”, which is incorporated herein by reference.
(§2) In this method two-fold serial dilutions of drug in cation adjusted Mueller-Hinton broth were added to wells in microdilution trays. The test organisms were prepared by adjusting the turbidity of actively growing broth cultures so that the final concentration of test organism after it is added to the wells was approximately 5×10^4 CFU/well. Following inoculation of the microdilution trays, the trays were incubated at 35° C. for 16-20 hours and then read. The amount of growth in the wells containing the test compound was compared with the amount of growth in the growth-control wells (no test compound) used in each tray.
(§3) Representative compounds of the present invention were tested against a variety of pathogenic bacteria with results as listed in Table 3, below.
A general note: Broth dilution looks for growth in wells or tubes with falling amounts of substance.

In experiment [2] the test system is strain C, fluoroquinolone-resistant clinical isolate of Streptococcus pneumoniae. The experiment in a line: In vitro antibacterial activity (MIC), microdilution broth method, strain C. The note with it: read-out: MIC (μg/mL) C. On the procedure:
as §1, §2, §3

For experiment [3], the system named is strain B, fluoroquinolone-resistant clinical isolate of Streptococcus pneumoniae. The experiment in a line: In vitro antibacterial activity (MIC), microdilution broth method, strain B. The note with it: read-out: MIC (μg/mL) B. On the procedure:
as §1, §2, §3

Experiment [4] deals with Staphylococcus aureus OC4172. The experiment in a line: In vitro antibacterial activity (MIC), microdilution broth method, strain A. Conditions: cation adjusted Mueller-Hinton broth, 35° C., 16-20 hours. Here is the method:
as §1, §2, §3

The test system of experiment [5] is Streptococcus pneumoniae ATCC 49619. As to the kind of experiment: In vitro antibacterial activity (MIC), microdilution broth method, strain E. Conditions: ATCC49619, 35° C., 16-20 hours. Here is the method: as §1, §2, §3

This note sets out measurements from patent publication US20090270379A1, “QUINOLONE DERIVATIVES USEFUL AS ANTIBACTERIAL AGENTS” (priority 2008, published 2009).

Structures are written as SMILES. Converted amounts (≈) assume the structure as drawn. Some results are limits rather than exact numbers.

In the case of `COc1c(-c2cc3n(c2)C[C@H](C)N[C@@H]3C)c(F)cc2c(=O)c(C(=O)O)cn(C3CC3)c12` [Compound 18, 1-Cyclopropyl-7-(1R,3S-dimethyl-1,2,3,4-tetrahydro-pyrrolo[1,2-a]pyrazin-7-yl)-6-fluoro-8-methoxy-4-oxo-1,4-dihydro-quinoline-3-carboxylic acid], the MIC came to 16 µg/mL (≈ 37.6 µM) in experiment [1]; 8 µg/mL (≈ 18.8 µM) in experiment [2]; 2 µg/mL (≈ 4.7 µM) in experiment [3]; 0.12 µg/mL (≈ 0.282 µM) in experiment [4]; 1 µg/mL (≈ 2.35 µM) in experiment [5].
Turning to `C[C@H]1Cn2cc(-c3cc4c(cc3F)c(=O)c(C(=O)O)cn4C3CC3)cc2CN1` [Compound 19, 1-Cyclopropyl-6-fluoro-7-(3S-methyl-1,2,3,4-tetrahydro-pyrrolo[1,2-a]pyrazin-7-yl)-4-oxo-1,4-dihydro-quinoline-3-carboxylic acid], the MIC is more than 16 µg/mL in experiment [1]; 4 µg/mL (≈ 10.5 µM) in experiment [2]; 2 µg/mL (≈ 5.24 µM) in experiment [3]; 0.06 µg/mL (≈ 0.157 µM) in experiment [4]; 0.5 µg/mL (≈ 1.31 µM) in experiment [5].
Turning to `C[C@H]1Cn2cc(-c3cc4c(cc3F)c(=O)c(C(=O)O)cn4C3CC3)cc2CN1C` [Compound 20, 1-Cyclopropyl-7-(2,3S-dimethyl-1,2,3,4-tetrahydro-pyrrolo[1,2-a]pyrazin-7-yl)-6-fluoro-4-oxo-1,4-dihydro-quinoline-3-carboxylic acid], the MIC in experiment [1] is more than 16 µg/mL; in experiment [2] it was 16 µg/mL (≈ 40.5 µM); in experiment [3] it was 4 µg/mL (≈ 10.1 µM); in experiment [4], 0.5 µg/mL (≈ 1.26 µM); in experiment [5], 1 µg/mL (≈ 2.53 µM).
`C[C@@H]1NCCn2cc(-c3cc4c(cc3F)c(=O)c(C(=O)O)cn4C3CC3)cc21` [Compound 21, 1-Cyclopropyl-6-fluoro-7-(1S-methyl-1,2,3,4-tetrahydro-pyrrolo[1,2-a]pyrazin-7-yl)-4-oxo-1,4-dihydro-quinoline-3-carboxylic acid]: the MIC came out at 16 µg/mL (≈ 41.9 µM) in experiment [1]; 16 µg/mL (≈ 41.9 µM) in experiment [2]; 4 µg/mL (≈ 10.5 µM) in experiment [3]; 0.25 µg/mL (≈ 0.655 µM) in experiment [4]; 1 µg/mL (≈ 2.62 µM) in experiment [5].
As for `C[C@H]1NCCn2cc(-c3cc4c(cc3F)c(=O)c(C(=O)O)cn4C3CC3)cc21` [Compound 22, 1-Cyclopropyl-6-fluoro-7-(1R-methyl-1,2,3,4-tetrahydro-pyrrolo[1,2-a]pyrazin-7-yl)-4-oxo-1,4-dihydro-quinoline-3-carboxylic acid], the MIC in experiment [1] was more than 16 µg/mL; in experiment [2], 16 µg/mL (≈ 41.9 µM); in experiment [3], 4 µg/mL (≈ 10.5 µM); in experiment [4] it was 0.25 µg/mL (≈ 0.655 µM); in experiment [5] it was 1 µg/mL (≈ 2.62 µM).
As for `C[C@H]1Cn2cc(-c3c(F)cc4c(=O)c(C(=O)O)cn5c4c3OC[C@@H]5C)cc2CN1` [Compound 23, 8-Fluoro-3S-methyl-9-(3S-methyl-1,2,3,4-tetrahydro-pyrrolo[1,2-a]pyrazin-7-yl)-6-oxo-2,3-dihydro-6H-1-oxa-3a-aza-phenalene-5-carboxylic acid], the MIC in experiment [1] was 16 µg/mL (≈ 40.3 µM); in experiment [2], 8 µg/mL (≈ 20.1 µM); in experiment [3], 4 µg/mL (≈ 10.1 µM); in experiment [4], 0.25 µg/mL (≈ 0.629 µM); in experiment [5] it was 1 µg/mL (≈ 2.52 µM).
Regarding `C[C@@H]1NCCn2cc(-c3c(F)cc4c(=O)c(C(=O)O)cn5c4c3OC[C@@H]5C)cc21` [Compound 24, 8-Fluoro-3S-methyl-9-(1S-methyl-1,2,3,4-tetrahydro-pyrrolo[1,2-a]pyrazin-7-yl)-6-oxo-2,3-dihydro-6H-1-oxa-3a-aza-phenalene-5-carboxylic acid], the MIC in experiment [1] worked out at 16 µg/mL (≈ 40.3 µM); in experiment [2] it was 8 µg/mL (≈ 20.1 µM); in experiment [3], 4 µg/mL (≈ 10.1 µM); in experiment [4], 0.25 µg/mL (≈ 0.629 µM); in experiment [5], 1 µg/mL (≈ 2.52 µM).
In the same order, the values of `C[C@H]1Cn2cc(-c3nc4c(cc3F)c(=O)c(C(=O)O)cn4C3CC3)cc2CN1` [Compound 25, 1-Cyclopropyl-6-fluoro-7-(3S-methyl-1,2,3,4-tetrahydro-pyrrolo[1,2-a]pyrazin-7-yl)-4-oxo-1,4-dihydro-[1,8]naphthyridine-3-carboxylic acid] are 8 µg/mL (≈ 20.9 µM), 8 µg/mL (≈ 20.9 µM), 2 µg/mL (≈ 5.23 µM), 0.06 µg/mL (≈ 0.157 µM) and 0.5 µg/mL (≈ 1.31 µM).
